{"source": "patent US20210038753A1", "about": "“BIOLOGICAL STERILIZATION INDICATOR WITH STERILANT RESISTANCE MODULATOR” (3M INNOVATIVE PROPERTIES COMPANY, priority 2014, published 2021)", "type_in_all_cases": "cell-based", "key": {"[1]": {"test_system": "Geobacillus stearothermophilus spores", "test": "Resistance of self-contained biological indicators to hydrogen peroxide sterilization, growth readout by pH colour change (GRO+)", "protocol": "(§1) PET film (.09 mm thick) was coated with colloidal silica as described in International Publication No. WO2014/189716, which is incorporated herein by reference in its entirety. […] Separate aqueous spore coating solutions were prepared as described in Example 1 with the amino acids shown in table 4 present in the coating solutions. Two microliter aliquots (containing at least 10^6 spores) of the respective spore coating solutions were deposited onto the silica-coated PET film, forming a series of spaced-apart spots on the film. The spore coated films were dried in a 60° C. incubator for 12 minutes. Circular discs (hereinafter, “coated carriers”) of the PET film, each disc including one of the dried spots, were punched out and were used to assemble self-contained biological indicators (BI) similar to that shown in FIG. 1 of International Publication No. WO2014/189716. The coated carriers described above were placed into the “spore carrier 135” shown in FIG. 1 of International Publication No. WO2014/189716. Each self-contained BI comprised a polycarbonate outer container, a breaker, a cap, and a cap filter. Disposed inside the outer container were a coated carrier along with an ampoule media containing the nutrient medium from 3M ATTEST 1292 Rapid Readout Biological Indicators plus 5g/L methionine (as described in Example 1).\n(§2) The self-contained biological indicators with different concentrations of additives (Table 4) were exposed to hydrogen peroxide sterilization in STERRAD NX sterilizer. The sterilization processes were run by manually injecting 1.0 ml of 59% hydrogen peroxide per load, unless specified otherwise. The exposure time was varied to determine the resistance profile of self-contained BIs with different additive formulations. The BIs were activated by pressing down the cap to break the media ampoule. The activated BIs were placed in a bench-top fluorimeter (3M Company, St. Paul, Minn.) to detect fluorescence.\n(§3) A self-contained BI that is not completely inactivated (i.e., not all of the spores are killed by the sterilization process) will resume cellular functions upon activation of the BI. The production of glucosidase enzyme by surviving spores is an indication that at least one of the spores have not been inactivated (killed) by the sterilization process. The glucosidase enzyme cleaves the 4-methylumbelliferyl-glucoside (MUG) releasing the fluorescent methyl umbelliferone, which is detected using a bench-top fluorimeter. Growth and proliferation of spores in the self-contained biological indicator can also be detected by a pH change, which may be detected by a color change of the pH indicator in the growth medium.\n(§4) Self-contained biological indicators were prepared (with various additives listed in table 4) as described above in this Example. For each additive tested, a lower range and a higher range was used as a preliminary screen to identify additives modulated the resistance of the spores to the sterilant. Five self-contained BIs representing each condition were exposed to hydrogen peroxide sterilization in STERRAD NX sterilizer. The sterilization processes used a constant injection volume (1.0 ml of 59% hydrogen peroxide) and various times (e.g., 20 seconds to 7 minutes) of exposure to the hydrogen peroxide. The self-contained BIs were activated after exposure to the sterilization process and were monitored for fluorescence using a bench-top fluorimeter) and pH based color change (visually). […]\n(§5) Self-contained biological indicators (with various additives listed in table 5) were prepared as described in Example 2. The self-contained biological indicators were exposed to hydrogen peroxide in a STERRAD NX sterilizer as described in Example 2. The self-contained BIs were activated after exposure to the sterilization process and were monitored for fluorescence using a bench-top fluorimeter and pH based color change (visually)."}, "[2]": {"test_system": "Geobacillus stearothermophilus spores", "test": "Resistance of self-contained biological indicators to hydrogen peroxide sterilization, glucosidase enzyme activity fluorescence readout (ENZ+)", "protocol": "as §1, §2, §3, §4, §5"}, "[3]": {"test_system": "Geobacillus stearothermophilus spores", "test": "Survival of spores (growth, pH indicator change) in modulator-treated self-contained biological indicators after H2O2 sterilant exposure (Example 1)", "conditions": "for percentage of self-contained biological indicators that showed observable growth (pH indicator change): 2 minutes", "protocol": "Tub-shaped spore carriers (polypropylene), similar to those described in International Publication No. WO2014/189716 with the exception that they were not coated with colloidal nanoparticles, were used. Liquid-cultured Geobacillus stearothermophilus spores (>10^6), were suspended in sterile water. Approximately 10 μL of the spore suspension was deposited onto the spore carriers and dried at room temperature. Aliquots (0 μL, 5 μL, or 10 μL, respectively) of a 0.5M sterile solution of L-homocysteine were deposited into the dried, spore-coated tub-shaped spore carrier. The homocysteine-coated tubs were dried at room temperature. Thus, the final dried coating on the carriers included at least 10^6 spores with 0, 2.5 or 5 micromoles of L-homocysteine, respectively.\nFIG. 1. The outer container 12 was obtained from 3M ATTEST 1292 Rapid Biological Indicators (available from 3M Company; St. Paul, Minn.). The cap was obtained from 3M ATTEST 1261 Biological Indicators (3M Company). The nutrient medium was from 3M ATTEST 1292 ampoules with added methionine (5 g/L). Five individual self-contained biological indicators were exposed to different concentrations (listed in Table 3) of hydrogen peroxide for 2 minutes in a STERRAD NX sterilizer. After exposing them to the sterilization process, all of the self-contained biological indicators were activated by crushing the ampoule inside the outer container."}, "[4]": {"conditions": "Table 4, modulator 0.01 weight percent in spore coating solution, H2O2 exposure 30 sec."}, "[5]": {"conditions": "Table 4, modulator 0.01 weight percent in spore coating solution, H2O2 exposure 60 sec."}, "[6]": {"conditions": "Table 4, modulator 0.01 weight percent in spore coating solution, H2O2 exposure 90 sec."}, "[7]": {"conditions": "Table 4, modulator 0.01 weight percent in spore coating solution, H2O2 exposure 3 min."}, "[8]": {"conditions": "Table 4, modulator 0.01 weight percent in spore coating solution, H2O2 exposure 7 min."}, "[9]": {"conditions": "Table 4, modulator 0.1 weight percent in spore coating solution, H2O2 exposure 30 sec."}, "[10]": {"conditions": "Table 4, modulator 0.1 weight percent in spore coating solution, H2O2 exposure 60 sec."}, "[11]": {"conditions": "Table 4, modulator 0.1 weight percent in spore coating solution, H2O2 exposure 90 sec."}, "[12]": {"conditions": "Table 4, modulator 0.1 weight percent in spore coating solution, H2O2 exposure 3 min."}, "[13]": {"conditions": "Table 4, modulator 0.1 weight percent in spore coating solution, H2O2 exposure 7 min."}}, "data": [{"smiles": "O=C(O)[C@@H]1CCCN1", "note": "[L-proline, reference compound]", "values": [{"measurement": "sensitivity of the biological indicator to the sterilization process relative to the control with no additives", "setting": "[1]; Example 2 / Comparative Example 1 (Table 4), fluorescence and growth readouts", "value": "did not result in an increased sensitivity"}, {"measurement": "percentage of self-contained biological indicators positive for growth (GRO+)", "setting": "[1]; [4]", "value": 100, "unit": "%"}, {"measurement": "percentage of self-contained biological indicators positive for growth (GRO+)", "setting": "[1]; [5]", "value": 100, "unit": "%"}, {"measurement": "percentage of self-contained biological indicators positive for growth (GRO+)", "setting": "[1]; [6]", "value": 100, "unit": "%"}, {"measurement": "percentage of self-contained biological indicators positive for growth (GRO+)", "setting": "[1]; [7]", "value": 0, "unit": "%"}, {"measurement": "percentage of self-contained biological indicators positive for growth (GRO+)", "setting": "[1]; [8]", "value": 0, "unit": "%"}, {"measurement": "percentage of self-contained biological indicators positive for growth (GRO+)", "setting": "[1]; [9]", "value": 100, "unit": "%"}, {"measurement": "percentage of self-contained biological indicators positive for growth (GRO+)", "setting": "[1]; [10]", "value": 100, "unit": "%"}, {"measurement": "percentage of self-contained biological indicators positive for growth (GRO+)", "setting": "[1]; [11]", "value": 100, "unit": "%"}, {"measurement": "percentage of self-contained biological indicators positive for growth (GRO+)", "setting": "[1]; [12]", "value": 0, "unit": "%"}, {"measurement": "percentage of self-contained biological indicators positive for growth (GRO+)", "setting": "[1]; [13]", "value": 0, "unit": "%"}, {"measurement": "percentage of self-contained biological indicators positive for glucosidase enzyme activity (ENZ+)", "setting": "[2]; [4]", "value": 100, "unit": "%"}, {"measurement": "percentage of self-contained biological indicators positive for glucosidase enzyme activity (ENZ+)", "setting": "[2]; [5]", "value": 100, "unit": "%"}, {"measurement": "percentage of self-contained biological indicators positive for glucosidase enzyme activity (ENZ+)", "setting": "[2]; [6]", "value": 100, "unit": "%"}, {"measurement": "percentage of self-contained biological indicators positive for glucosidase enzyme activity (ENZ+)", "setting": "[2]; [7]", "value": 0, "unit": "%"}, {"measurement": "percentage of self-contained biological indicators positive for glucosidase enzyme activity (ENZ+)", "setting": "[2]; [8]", "value": 0, "unit": "%"}, {"measurement": "percentage of self-contained biological indicators positive for glucosidase enzyme activity (ENZ+)", "setting": "[2]; [9]", "value": 100, "unit": "%"}, {"measurement": "percentage of self-contained biological indicators positive for glucosidase enzyme activity (ENZ+)", "setting": "[2]; [10]", "value": 100, "unit": "%"}, {"measurement": "percentage of self-contained biological indicators positive for glucosidase enzyme activity (ENZ+)", "setting": "[2]; [11]", "value": 100, "unit": "%"}, {"measurement": "percentage of self-contained biological indicators positive for glucosidase enzyme activity (ENZ+)", "setting": "[2]; [12]", "value": 0, "unit": "%"}, {"measurement": "percentage of self-contained biological indicators positive for glucosidase enzyme activity (ENZ+)", "setting": "[2]; [13]", "value": 0, "unit": "%"}]}, {"smiles": "N[C@@H](CCS)C(=O)O", "note": "[L-homocysteine]", "values": [{"measurement": "resistance of spores to H2O2 compared to 0 micromoles of L-homocysteine", "setting": "[3]; 2.5 micromoles of L-homocysteine, seen with 0.6 ml and 0.8 ml of 59% H2O2", "value": "decrease in resistance of spores"}, {"measurement": "percentage of self-contained biological indicators that showed observable growth (pH indicator change)", "setting": "[3]; 2.5 micromoles of homocysteine, 0.1 ml of 59% H2O2 (94 mg × Sec/L)", "value": 100, "unit": "%"}, {"measurement": "percentage of self-contained biological indicators that showed observable growth (pH indicator change)", "setting": "[3]; 2.5 micromoles of homocysteine, 0.2 ml of 59% H2O2 (222 mg × Sec/L)", "value": 80, "unit": "%"}, {"measurement": "percentage of self-contained biological indicators that showed observable growth (pH indicator change)", "setting": "[3]; 2.5 micromoles of homocysteine, 0.4 ml of 59% H2O2 (458 mg × Sec/L)", "value": 60, "unit": "%"}, {"measurement": "percentage of self-contained biological indicators that showed observable growth (pH indicator change)", "setting": "[3]; 2.5 micromoles of homocysteine, 0.6 ml of 59% H2O2 (689 mg × Sec/L)", "value": 60, "unit": "%"}, {"measurement": "percentage of self-contained biological indicators that showed observable growth (pH indicator change)", "setting": "[3]; 2.5 micromoles of homocysteine, 0.8 ml of 59% H2O2 (842 mg × Sec/L)", "value": 20, "unit": "%"}, {"measurement": "resistance of spores to H2O2", "setting": "[3]; 5.0 micromoles of L-homocysteine, all kill with 0.4 ml of 59% H2O2", "value": "reduced the resistance of spores significantly"}, {"measurement": "percentage of self-contained biological indicators that showed observable growth (pH indicator change)", "setting": "[3]; 5.0 micromoles of homocysteine, 0.1 ml of 59% H2O2 (94 mg × Sec/L)", "value": 100, "unit": "%"}, {"measurement": "percentage of self-contained biological indicators that showed observable growth (pH indicator change)", "setting": "[3]; 5.0 micromoles of homocysteine, 0.2 ml of 59% H2O2 (222 mg × Sec/L)", "value": 40, "unit": "%"}, {"measurement": "percentage of self-contained biological indicators that showed observable growth (pH indicator change)", "setting": "[3]; 5.0 micromoles of homocysteine, 0.4 ml of 59% H2O2 (458 mg × Sec/L)", "value": 0, "unit": "%"}, {"measurement": "percentage of self-contained biological indicators that showed observable growth (pH indicator change)", "setting": "[3]; 5.0 micromoles of homocysteine, 0.6 ml of 59% H2O2 (689 mg × Sec/L)", "value": 0, "unit": "%"}, {"measurement": "percentage of self-contained biological indicators that showed observable growth (pH indicator change)", "setting": "[3]; 5.0 micromoles of homocysteine, 0.8 ml of 59% H2O2 (842 mg × Sec/L)", "value": 0, "unit": "%"}]}]}
